Test results from PMC7714073, “Inhibition properties of free and conjugated leupeptin analogues” (FEBS Open Bio, 2020).
Non-standard residues stand in square brackets, D forms with d. Residues, ends and D or L forms follow the SMILES beside them. Ahx = NCCCCCC(=O)O

How the values were obtained:
Type in all cases: biochemical, porcine
trypsin [1] = biological target: T1, trypsin (Sus scrofa, UniProt P00761); assay: Trypsin inhibition, real-time measurements of initial velocities with BAPA (free inhibitors); details: apparent Ki, tight-binding (Morrison) fit; 0.1 M NH4HCO3 pH 7.52, 2% (v/v) DMSO, BAPA 1 mM, trypsin 0.25 µM, KM 0.82 mM, read at 410 nm
T1 construct: purchased Sigma-Aldrich; host or cells: porcine pancreas
T1 sequence (P00761 9-231): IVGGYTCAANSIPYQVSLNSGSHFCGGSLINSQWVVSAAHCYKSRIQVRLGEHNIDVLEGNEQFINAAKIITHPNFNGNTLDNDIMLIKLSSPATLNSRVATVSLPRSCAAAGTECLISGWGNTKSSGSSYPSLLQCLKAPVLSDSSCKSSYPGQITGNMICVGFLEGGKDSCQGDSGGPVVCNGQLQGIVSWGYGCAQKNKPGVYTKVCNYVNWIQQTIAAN
Description: Fig. 4 The ratio vi/v 0 is plotted as a function of the inhibitor peptide Ahx–Phe–Leu–Arg–COOH (A) and Ahx–Leu–Leu–Arg–COOH (B). […] Error bars represent standard deviation.
Kinetic parameters were obtained by measuring initial velocities in the presence of selected concentrations of natural leupeptin (0.14–1.62 µM), oxidized leupeptin (8–127 µM), reduced leupeptin (10–413 µM) and peptides 1 and 2 (8–254 µM). All reactions were performed in 0.1 M NH4HCO3 (pH 7.52) and 2% (v/v) DMSO using concentrations of BAPA and trypsin fixed at 1 mM and 0.25 µM, respectively. The reaction was monitored at 410 nm in a Shimadzu UV‐1601 UV‐Vis spectrophotometer.
(§1) For real‐time and end point measurements, the Ki value was estimated by the graphical method of Dixon and Morrison (Eqn 1). Ki was extracted after fitting the data to Eqns (1,2) using GRAPHPAD PRISM 8 (GraphPad Software, San Diego, CA, USA). A K M of 0.82 mM was used for the calculations.(1) vi/vo=1‐([E]+[I]+Kiapp)‐[E]+[I]+Kiapp^2‐4[E][I]/2[E]
(§2) The form of Kappi varies with the type of inhibitor. For competitive inhibitors, as in the case of leupeptin, the Ki value can be calculated from Eqn (2):(2) Kiapp=Ki1+[S]/KM

trypsin [2] = biological target: T1, trypsin; assay: Kinetic measurements of TiO2-peptide conjugate (Vmax, Km; Fig. S2/Table S1); details: trypsin with conjugate present, 0.1 M NH4HCO3 pH 7.52, trypsin 0.125 µM, 34 mg conjugate (6.06 nmol peptide/mg TiO2) per reaction
Description: Figure S2. Kinetic measurements of TiO2-peptide conjugate.
Table S1. Extracted values from figure S2. Experiment setup: Buffer 0.1 M NH4HCO3 pH 7.52, [Trypsin] (in eppendorf) = 0.125 µM, 34 mg TiO2-Ahx-Phe-Leu-COOH
(6.06 nmol mod. peptide/mg TiO2) in each reaction.

trypsin [3] = biological target: T1, trypsin; assay: Gelatin erosion method: inhibition activity of free and conjugated peptide in gelatin layer; details: for Rate (erosion well formation rate, linear regression): gel experiment; for Plateau (relative asymptotic plateau value, asymptotic area ratio at virtually maximal inhibition): gelatin erosion, relative area increase rate vs inhibitor concentration, fitted in GRAPHPAD PRISM 8
Description: The gelatin erosion method that simulates a surface with a protective cover layer is here used to evaluate the function of the peptide in its different conjugation states where the relative area increase rate is plotted against the increasing inhibitor concentration in Fig. 6. The curves obtained as a function of concentration for the free peptide and the TiO2‐conjugated peptide, respectively, are virtually identical. […] This may tentatively be explained by a model where the enzyme molecules, once ‘captured’ by the immobilized peptides, also interact nonspecifically with the ZnO surface, resulting in addition of binding energies and thus also cooperative binding. As has been noted earlier by us, the well area converges to an asymptotic nonzero value ‘plateau’ at high inhibitor concentration that is virtually identical for the different cases. The limit may actually be set by the size of the droplet applied and initial enzyme diffusion. However, the similar limiting values further confirm that the inhibition modes are identical for free and conjugated inhibitor. […] This is actually in accordance with the pattern observed for the ZnO conjugate. […] For details regarding the gelatin erosion method, see Fig. S3 and Table S2.
The experiments were performed as described earlier. The concentration of the free inhibitor Ahx–Phe–Leu–Arg–COOH was ranging from 5 to 50 μM, for ZnO conjugate 1–15 μM and for TiO2 conjugate 1–25 μM.
Table S2. The rates, given by the linear regression, are given below for the gel experiment for free Ahx-Phe-Leu-Arg-COOH and its conjugated state to TiO2 and ZnO.

trypsin [4] = biological target: T1, trypsin; assay: Trypsin inhibition, end point measurements with BAPA (conjugated peptide); details: for Efficiency: Ki,free/Ki,app = [I]eff/[I]tot, free Ahx–Phe–Leu–Arg–COOH as reference (1.00); for Ki: end point measurements
Description: Fig. 5 vi/v 0 is plotted as a function of the conjugated TiO2–Ahx–Phe–Leu–Arg–COOH (A), ZnO–Ahx–Phe–Leu–Arg–COOH (B) and WorkBeads™‐Ahx‐Phe‐Leu‐Arg‐COOH (C). […] Error bars represent standard deviation.
Kinetic parameters were obtained by mixing substrate, enzyme and conjugate in a plastic Eppendorf tube with varying concentrations of TiO2–peptide 1 0–70 μM, ZnO–peptide 1 0–60 μM and gel beads conjugated to peptide 1 0–60 μM and incubating with end‐over‐end rotation. A total of 150 µL aliquots was withdrawn at five time points for each reaction, and the reaction was stopped in 100 mM acetic acid (pH 3). Absorbance was measured at 410 nm in a UV‐1601 UV‐Vis spectrophotometer (Shimadzu, Columbia, MD, USA).
as §1, §2

[5] = apparent Ki of conjugated peptide, five time points, stopped in 100 mM acetic acid pH 3, 410 nm, trypsin 0.25 μM, BAPA 1 mM, Km 0.82 mM, read-out: Ki
[6] = apparent Ki of the stored conjugate, storage time not given (conjugates stored at 4 °C), read-out: Ki stored

| Molecule | Ki (trypsin [1]) [µM] | Efficiency (trypsin [4]) | Ki (trypsin [4]; [5]) [µM] | Ki (trypsin [4]; [6]) [µM] | further results |
| --- | --- | --- | --- | --- | --- |
| TiO2–Ahx–Phe–Leu–Arg–COOH |  | 0.32 | 11 ± 2 | 7.1 ± 1.1 | Km (trypsin [2]; no inhibitor: 2.9 ± 0.8): 6.4 ± 1.2 mM; Vmax (trypsin [2]; no inhibitor: 720 ± 100): 250 ± 30; Rate (erosion well formation rate, linear regression) (trypsin [3]; 1 μM inhibitor): 4.0 ± 0.4 mm^2/ μMtrypsin; Rate (erosion well formation rate, linear regression) (trypsin [3]; 5 μM inhibitor): 3.5± 0.4 mm^2/ μMtrypsin; Rate (erosion well formation rate, linear regression) (trypsin [3]; 10 μM inhibitor): 3.6 ± 0.1 mm^2/ μMtrypsin; Rate (erosion well formation rate, linear regression) (trypsin [3]; 15 μM inhibitor): 2.00 ± 0.1 mm^2/ μMtrypsin; Rate (erosion well formation rate, linear regression) (trypsin [3]; 25 μM inhibitor): 2.2 ± 0.3 mm^2/ μMtrypsin; Plateau (relative asymptotic plateau value, asymptotic area ratio at virtually maximal inhibition) (trypsin [3]): 0.42 ± 0.21 |
| ZnO–Ahx–Phe–Leu–Arg–COOH |  | 0.77 | 4.4 ± 1.3 | 7.6 ± 1.5 | Rate (erosion well formation rate, linear regression) (trypsin [3]; 1 μM inhibitor): 3.1 ± 0.5 mm^2/ μMtrypsin; Rate (erosion well formation rate, linear regression) (trypsin [3]; 5 μM inhibitor): 2.3 ± 0.50 mm^2/ μMtrypsin; Rate (erosion well formation rate, linear regression) (trypsin [3]; 10 μM inhibitor): 2.2 ± 0.4 mm^2/ μMtrypsin; Rate (erosion well formation rate, linear regression) (trypsin [3]; 15 μM inhibitor): 2.0 ± 0.5 mm^2/ μMtrypsin; Plateau (relative asymptotic plateau value, asymptotic area ratio at virtually maximal inhibition) (trypsin [3]): 0.46 ± 0.02 |
| CC(=O)N[C@@H](CC(C)C)C(=O)N[C@@H](CC(C)C)C(=O)N[C@H](CO)CCCNC(=N)N [reduced leupeptin] | 270 ± 100 |  |  |  |  |
| CC(=O)N[C@@H](CC(C)C)C(=O)N[C@@H](CC(C)C)C(=O)N[C@@H](CCCNC(=N)N)C(=O)O [oxidized leupeptin] | 2.7 ± 0.1 |  |  |  |  |
| WorkBeads™‐Ahx‐Phe‐Leu‐Arg‐COOH [Ahx–Phe–Leu–Arg–COOH coupled to WorkBeads™ 40/1000 ACT agarose gel beads, 150 nmol·mL^−1 beads] |  | 0.12 | 29 ± 4 | 53 ± 9 | fraction of the conjugated peptides available for the enzyme (trypsin [4]; according to the efficiency, peptide conjugated to agarose gel beads): about 10% |

Further lines, with some results ahead:

| Ki (trypsin [1]) [µM] | Efficiency (trypsin [4]) | Ki (trypsin [4]; [5]) [µM] | Ki (trypsin [4]; [6]) [µM] | Molecule | further results |
| --- | --- | --- | --- | --- | --- |
| 0.088 ± 0.008 |  |  |  | CC(=O)N[C@@H](CC(C)C)C(=O)N[C@@H](CC(C)C)C(=O)N[C@H](C=O)CCCNC(=N)N [Leupeptin, Ac–Leu–Leu–Arg–CHO] |  |
| 3.4 ± 0.2 |  |  |  | CC(C)C[C@H](NC(=O)[C@H](Cc1ccccc1)NC(=O)CCCCCN)C(=O)N[C@@H](CCCNC(=N)N)C(=O)O [Ahx–Phe–Leu–Arg–COOH, 6‐aminohexanoic acid (Ahx)–Phe–Leu–Arg–COOH] (H-[Ahx]FLR-OH) |  |
| 9.5 ± 1 |  |  |  | CC(C)C[C@H](NC(=O)CCCCCN)C(=O)N[C@@H](CC(C)C)C(=O)N[C@@H](CCCNC(=N)N)C(=O)O [Ahx–Leu–Leu–Arg–COOH] (H-[Ahx]LLR-OH) |  |
